Test results as given in patent US20240180900A1, “COMPOUNDS AND METHODS FOR THE TARGETED DEGRADATION OF ANDROGEN RECEPTOR” (Arvinas Operations, Inc., priority 2022, published 2024).

Assay: Phase 1/2 study in mCRPC participants: safety
[1] = all-causality TEAEs, Phase 1, N = 34
[2] = all-causality TEAEs, Phase 2, N = 13

## COc1cc(O[C@H]2C(C)(C)[C@H](NC(=O)c3ccc(N4CCC(CN5CCN(c6ccc(C(=O)N[C@H]7CCC(=O)NC7=O)c(F)c6)CC5)CC4)cc3)C2(C)C)ccc1C#N [Compound A, 4-(4-((1-(4-(((1R,3R)-3-(4-cyano-3-methoxyphenoxy)-2,2,4,4-tetramethylcyclobutyl)carbamoyl)phenyl)piperidin-4-yl)methyl)piperazin-1-yl)-N—((S)-2,6-dioxopiperidin-3-yl)-2-fluorobenzamide]
[1]
  Fatigue: Grade 5: 0 participants
  Gastrointestinal disorders: Any Grade: 15 participants
  Gastrointestinal disorders: Grade 3: 2 participants
  Gastrointestinal disorders: Grade 4: 0 participants
  Gastrointestinal disorders: Grade 5: 0 participants
  General disorders and administration site conditions: Any Grade: 16 participants
  General disorders and administration site conditions: Grade 3: 1 participants
  General disorders and administration site conditions: Grade 4: 0 participants
  General disorders and administration site conditions: Grade 5: 0 participants
  Hyponatraemia: Any Grade: 4 participants
  Hyponatraemia: Grade 3: 0 participants
  Hyponatraemia: Grade 4: 0 participants
  Hyponatraemia: Grade 5: 0 participants
  Hypophosphataemia: Any Grade: 4 participants
  Hypophosphataemia: Grade 3: 0 participants
  Hypophosphataemia: Grade 4: 0 participants
  Hypophosphataemia: Grade 5: 0 participants
  Insomnia: Any Grade: 5 participants
  Insomnia: Grade 3: 0 participants
  Insomnia: Grade 4: 0 participants
  Insomnia: Grade 5: 0 participants
  Investigations: Any Grade: 19 participants
  Investigations: Grade 3: 1 participants
  Investigations: Grade 4: 1 participants
  Investigations: Grade 5: 0 participants
  Lymphocyte count decreased: Any Grade: 4 participants
  Lymphocyte count decreased: Grade 3: 0 participants
  Lymphocyte count decreased: Grade 4: 1 participants
  Lymphocyte count decreased: Grade 5: 0 participants
  Metabolism and nutrition disorders: Any Grade: 15 participants
  Metabolism and nutrition disorders: Grade 3: 1 participants
  Metabolism and nutrition disorders: Grade 4: 0 participants
  Metabolism and nutrition disorders: Grade 5: 0 participants
  Nausea: Any Grade: 7 participants
  Nausea: Grade 3: 0 participants
  Nausea: Grade 4: 0 participants
  Nausea: Grade 5: 0 participants
  Neutrophil count decreased: Any Grade: 4 participants
  Neutrophil count decreased: Grade 3: 0 participants
  Neutrophil count decreased: Grade 4: 0 participants
  Neutrophil count decreased: Grade 5: 0 participants
  Participants with any TEAEs: Any Grade: 33 participants
  Participants with any TEAEs: Grade 3: 10 participants
  Participants with any TEAEs: Grade 4: 2 participants
  Participants with any TEAEs: Grade 5: 1 (2.9) participants
  Psychiatric disorders: Any Grade: 7 participants
  Psychiatric disorders: Grade 3: 0 participants
  Psychiatric disorders: Grade 4: 0 participants
  Psychiatric disorders: Grade 5: 0 participants
  Rash maculo-papular: Any Grade: 4 participants
  Rash maculo-papular: Grade 3: 0 participants
  Rash maculo-papular: Grade 4: 0 participants
  Rash maculo-papular: Grade 5: 0 participants
  Respiratory, thoracic and mediastinal disorders: Any Grade: 6 participants
  Respiratory, thoracic and mediastinal disorders: Grade 3: 2 participants
  Respiratory, thoracic and mediastinal disorders: Grade 4: 0 participants
  Respiratory, thoracic and mediastinal disorders: Grade 5: 0 participants
  Skin and subcutaneous tissue disorders: Any Grade: 10 participants
  Skin and subcutaneous tissue disorders: Grade 3: 0 participants
  Skin and subcutaneous tissue disorders: Grade 4: 0 participants
  Skin and subcutaneous tissue disorders: Grade 5: 0 participants
[2]
  Abdominal pain: Any Grade: 2 participants
  Abdominal pain: Grade 3: 1 participants
  Abdominal pain: Grade 4: 0 participants
  Abdominal pain: Grade 5: 0 participants
  Alopecia: Any Grade: 2 participants
  Alopecia: Grade 3: 0 participants
  Alopecia: Grade 4: 0 participants
  Alopecia: Grade 5: 0 participants
  Anaemia: Any Grade: 4 participants
  Anaemia: Grade 3: 0 participants
  Anaemia: Grade 4: 0 participants
  Anaemia: Grade 5: 0 participants
  Blood alkaline phosphatase increased: Any Grade: 3 participants
  Blood alkaline phosphatase increased: Grade 3: 0 participants
  Blood alkaline phosphatase increased: Grade 4: 0 participants
  Blood alkaline phosphatase increased: Grade 5: 0 participants
  Blood and lymphatic system disorders: Any Grade: 4 participants
  Blood and lymphatic system disorders: Grade 3: 0 participants
  Blood and lymphatic system disorders: Grade 4: 0 participants
  Blood and lymphatic system disorders: Grade 5: 0 participants
  Diarrhoea: Any Grade: 3 participants
  Diarrhoea: Grade 3: 0 participants
  Diarrhoea: Grade 4: 0 participants
  Diarrhoea: Grade 5: 0 participants
  Dysgeusia: Any Grade: 3 participants
  Dysgeusia: Grade 3: 0 participants
  Dysgeusia: Grade 4: 0 participants
  Dysgeusia: Grade 5: 0 participants
  Fatigue: Any Grade: 2 participants
  Fatigue: Grade 3: 0 participants
  Fatigue: Grade 4: 0 participants
  Fatigue: Grade 5: 0 participants
  Gastrointestinal disorders: Any Grade: 7 participants
  Gastrointestinal disorders: Grade 3: 1 participants
  Gastrointestinal disorders: Grade 4: 0 participants
  Gastrointestinal disorders: Grade 5: 0 participants
  General disorders and administration site conditions: Any Grade: 2 participants
  General disorders and administration site conditions: Grade 3: 0 participants
  General disorders and administration site conditions: Grade 4: 0 participants
  General disorders and administration site conditions: Grade 5: 0 participants
  Haematuria: Any Grade: 3 participants
  Haematuria: Grade 3: 0 participants
  Haematuria: Grade 4: 0 participants
  Haematuria: Grade 5: 0 participants
  Hypertension: Any Grade: 2 participants
  Hypertension: Grade 3: 1 participants
  Hypertension: Grade 4: 0 participants
  Hypertension: Grade 5: 0 participants
  Investigations: Any Grade: 5 participants
  Investigations: Grade 3: 0 participants
  Investigations: Grade 4: 0 participants
  Investigations: Grade 5: 0 participants
  Nausea: Any Grade: 2 participants
  Nausea: Grade 3: 0 participants
  Nausea: Grade 4: 0 participants
  Nausea: Grade 5: 0 participants
  Nervous system disorders: Any Grade: 3 participants
  Nervous system disorders: Grade 3: 0 participants
  Nervous system disorders: Grade 4: 0 participants
  Nervous system disorders: Grade 5: 0 participants
  Participants with any TEAEs: Any Grade: 11 participants
  Participants with any TEAEs: Grade 3: 2 participants
  Participants with any TEAEs: Grade 4: 0 participants
  Participants with any TEAEs: Grade 5: 0 participants
  Proteinuria: Any Grade: 2 participants
  Proteinuria: Grade 3: 0 participants
  Proteinuria: Grade 4: 0 participants
  Proteinuria: Grade 5: 0 participants
  Renal and urinary disorders: Any Grade: 6 participants
  Renal and urinary disorders: Grade 3: 0 participants
  Renal and urinary disorders: Grade 4: 0 participants
  Renal and urinary disorders: Grade 5: 0 participants
  Skin and subcutaneous tissue disorders: Any Grade: 2 participants
  Skin and subcutaneous tissue disorders: Grade 3: 0 participants
  Skin and subcutaneous tissue disorders: Grade 4: 0 participants
  Skin and subcutaneous tissue disorders: Grade 5: 0 participants
  Vascular disorders: Any Grade: 2 participants
  Vascular disorders: Grade 3: 1 participants
  Vascular disorders: Grade 4: 0 participants
  Vascular disorders: Grade 5: 0 participants
  Vomiting: Any Grade: 2 participants
  Vomiting: Grade 3: 0 participants
  Vomiting: Grade 4: 0 participants
  Vomiting: Grade 5: 0 participants
Study start until data cut-off
  deaths considered related to Compound A: No deaths were considered related to Compound A
  deaths reported: Five
